Experimental findings from patent US12252524B2, “GIP/GLP1 co-agonist compounds” (Eli Lilly and Company, priority 2018, dated 2025) are described below.

The target of one assay is T1, human Gcg receptor (Homo sapiens, UniProt P47871).
T1 construct: expressed in transfected cells; crude membranes
Nature of the assay: [125I]-Glucagon binding (SPA), human Gcg receptor. The note with it: read-out: hGLcgR Ki, nM (SEM, n). The gist of the method: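 Scintillation counts are taken after membranes and WGA beads incubate and settle for 12 hours at room temperature. Buffer is 25 mM HEPES, pH 7.4, with CaCl2, MgCl2, bacitracin and Tween-20. Ki values, from four-parameter IC50 fits, are geometric means over independent days.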

Assay [1] concerns the target human GLP-1 receptor (GLP-1R) (Homo sapiens, UniProt P43220). Nature of the assay: cAMP pharmacological functional assay in presence of casein, hGLP-1R. In kind it is cell-based. The note with it: HEK293 cells expressing hGLP-1R, 0.1% Casein, geometric mean; read-out: hGLP1R cAMP Rel EC50 nM (SEM, n).
The target in the next assay is T2, human GIP receptor (Homo sapiens, UniProt P48546).
T2 construct: expressed in transfected cells; crude membranes
T2 sequence (P48546 22-466): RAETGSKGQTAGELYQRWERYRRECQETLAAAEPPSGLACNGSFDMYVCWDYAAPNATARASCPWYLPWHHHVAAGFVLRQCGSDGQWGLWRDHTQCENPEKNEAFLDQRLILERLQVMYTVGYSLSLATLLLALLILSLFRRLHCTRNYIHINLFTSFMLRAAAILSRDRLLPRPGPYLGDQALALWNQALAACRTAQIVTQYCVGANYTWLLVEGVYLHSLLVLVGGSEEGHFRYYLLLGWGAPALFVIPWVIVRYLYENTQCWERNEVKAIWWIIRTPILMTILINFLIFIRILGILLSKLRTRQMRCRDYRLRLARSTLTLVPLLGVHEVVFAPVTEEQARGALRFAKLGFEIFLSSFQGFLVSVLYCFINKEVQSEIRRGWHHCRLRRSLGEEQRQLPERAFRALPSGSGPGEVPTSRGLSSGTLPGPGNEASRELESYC
Nature of the assay: [125I]-GIP binding (SPA), human GIP receptor. To be noted: read-out: hGIPR Ki, nM (SEM, n).

Assay [2] addresses T3, gastric inhibitory peptide receptor (GIPR) (Homo sapiens, UniProt P48546).
T3 sequence (P48546 22-466): T2 sequence (P48546 22-466)
Nature of the assay: cAMP pharmacological functional assay in presence of casein, hGIPR. In kind it is cell-based. The note with it: HEK293 cells expressing hGIPR, 0.1% Casein, geometric mean; read-out: hGIPR cAMP Rel EC50 nM (SEM, n).

A further assay deals with human GLP-1R (Homo sapiens, UniProt P43220). Nature of the assay: [125I]-GLP-1 binding (SPA), human GLP-1 receptor. Further details: expressed in transfected cells; crude membranes. To be noted: read-out: hGLP1R Ki, (nM) (SEM, n). The method, boiled down:
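Assay buffer: HEPES 25 mM, pH 7.4, CaCl2 2.5 mM, MgCl2 1 mM, with EDTA-free protease inhibitors. Receptor came from crude cell membranes prepared by homogenization and centrifugation at 4° C. IC50s came from four-parameter fits (maximum, minimum, IC50, Hill slope) and were expressed as Ki geometric means with SEM.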

Structures are written as SMILES. Numbered stars: 1 amine (or outer) side, 2 acyl side, 3 side chain; on linkers, the order of the positions; unused ones are H or OH. Square brackets hold non-standard residues; d marks the D form. Side chains are listed from the residue outwards. Peptide text beside a SMILES is read from it. * marks the point of attachment. C20 diacid = O=C(O)CCCCCCCCCCCCCCCCCCC(=O)*; C18 diacid = O=C(O)CCCCCCCCCCCCCCCCC(=O)*; αMePhe(2-F) = C[C@](N)(Cc1ccccc1F)C(=O)O; γGlu = O=C(O)[C@H](CCC(=O)[*:2])N[*:1]; αMeF = C[C@](N)(Cc1ccccc1)C(=O)O; αMeL = CC(C)C[C@](C)(N)C(=O)O; AEEA = NCCOCCOCC(=O)O; Aib = CC(C)(N)C(=O)O

T1 sequence (P47871 26-477): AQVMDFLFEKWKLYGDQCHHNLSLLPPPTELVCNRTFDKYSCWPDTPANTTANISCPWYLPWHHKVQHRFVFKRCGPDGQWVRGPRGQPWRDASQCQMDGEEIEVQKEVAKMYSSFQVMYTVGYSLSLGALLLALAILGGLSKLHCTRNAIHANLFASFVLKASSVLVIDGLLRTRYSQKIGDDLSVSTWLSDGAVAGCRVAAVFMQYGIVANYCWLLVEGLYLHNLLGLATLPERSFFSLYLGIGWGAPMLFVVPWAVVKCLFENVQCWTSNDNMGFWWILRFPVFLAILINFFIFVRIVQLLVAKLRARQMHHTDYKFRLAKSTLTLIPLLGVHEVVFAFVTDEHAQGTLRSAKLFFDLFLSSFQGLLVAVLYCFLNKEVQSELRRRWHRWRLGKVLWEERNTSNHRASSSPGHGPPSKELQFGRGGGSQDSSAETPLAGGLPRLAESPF
Chain of human GLP-1R (P43220 24-463): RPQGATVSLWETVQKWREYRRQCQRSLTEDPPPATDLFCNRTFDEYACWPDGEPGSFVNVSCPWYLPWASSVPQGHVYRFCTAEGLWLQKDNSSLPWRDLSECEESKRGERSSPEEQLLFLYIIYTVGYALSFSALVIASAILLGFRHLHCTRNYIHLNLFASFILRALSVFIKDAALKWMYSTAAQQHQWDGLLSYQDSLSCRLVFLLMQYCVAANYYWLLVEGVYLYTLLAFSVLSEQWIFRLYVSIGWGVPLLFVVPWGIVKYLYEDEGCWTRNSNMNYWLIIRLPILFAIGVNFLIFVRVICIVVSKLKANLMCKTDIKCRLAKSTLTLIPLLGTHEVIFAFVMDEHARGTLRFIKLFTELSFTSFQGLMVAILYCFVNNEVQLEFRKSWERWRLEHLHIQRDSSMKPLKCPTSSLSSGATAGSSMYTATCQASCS
Chain of human GLP-1 receptor (GLP-1R) (P43220 24-463): as above

Broadly, the Ki is a dissociation constant, usually derived from enzyme kinetics or from competition with a known ligand. By EC50 is commonly meant the concentration giving half of the maximal effect. Consider `CC[C@H](C)[C@H](NC(=O)[C@H](CC(C)C)NC(=O)[C@H](Cc1ccc(O)cc1)NC(=O)[C@@H](CCC(=O)O)NC(=O)[C@@H](NC(=O)[C@H](Cc1ccccc1)NC(=O)[C@H](CCC(=O)O)NC(=O)C(C)(C)NC(=O)[C@H](CCC(N)=O)NC(=O)[C@H](C)NC(=O)[C@H](CCCCNC(=O)COCCOCCNC(=O)COCCOCCNC(=O)CC[C@H](NC(=O)CCCCCCCCCCCCCCCCC(=O)O)C(=O)O)NC(=O)[C@H](CCC(=O)O)NC(=O)[C@H](CC(=O)O)NC(=O)[C@H](CC(C)C)NC(=O)[C@](C)(CC(C)C)NC(=O)[C@@H](NC(=O)[C@H](CO)NC(=O)[C@H](Cc1ccc(O)cc1)NC(=O)[C@H](CC(=O)O)NC(=O)[C@H](CO)NC(=O)[C@@H](NC(=O)[C@](C)(Cc1ccccc1)NC(=O)[C@@H](NC(=O)CNC(=O)[C@H](CCC(=O)O)NC(=O)C(C)(C)NC(=O)[C@@H](N)Cc1ccc(O)cc1)[C@@H](C)O)[C@@H](C)O)[C@@H](C)CC)[C@@H](C)CC)C(=O)N[C@@H](CCC(=O)O)C(=O)NCC(=O)NCC(=O)N1CCC[C@H]1C(=O)N[C@@H](CO)C(=O)N[C@@H](CO)C(=O)NCC(=O)N[C@@H](C)C(=O)N1CCC[C@H]1C(=O)N1CCC[C@H]1C(=O)N1CCC[C@H]1C(=O)N[C@@H](CO)C(N)=O` [Example 213] (H-Y[Aib]EGT[αMeF]TSDYSI[αMeL]LDEK([AEEA-AEEA-γGlu-C18 diacid])AQ[Aib]EFI[dE]YLIEGGPSSGAPPPS-NH2), for which the inhibitory constant (Ki) is 544 nM on human Gcg receptor, 0.365 nM at human GIP receptor and 2.75 nM at human GLP-1R. Besides, the figures for the concentration giving a half-maximal response (EC50) in assay [1] and in assay [2] were 0.071 nM and 0.0523 nM, respectively.
The matching figures for `CC[C@H](C)[C@H](NC(=O)[C@H](CC(C)C)NC(=O)[C@H](Cc1ccc(O)cc1)NC(=O)[C@@H](CCC(=O)O)NC(=O)[C@@H](NC(=O)[C@H](Cc1ccccc1)NC(=O)[C@H](CCC(=O)O)NC(=O)C(C)(C)NC(=O)[C@H](CCC(N)=O)NC(=O)[C@H](C)NC(=O)[C@H](CCCCNC(=O)COCCOCCNC(=O)COCCOCCNC(=O)CCCCCCCCCCCCCCCCC(=O)O)NC(=O)[C@H](CCC(=O)O)NC(=O)[C@H](CC(=O)O)NC(=O)[C@H](CC(C)C)NC(=O)[C@](C)(CC(C)C)NC(=O)[C@@H](NC(=O)[C@H](CO)NC(=O)[C@H](Cc1ccc(O)cc1)NC(=O)[C@H](CC(=O)O)NC(=O)[C@H](CO)NC(=O)[C@@H](NC(=O)[C@](C)(Cc1ccccc1F)NC(=O)[C@@H](NC(=O)CNC(=O)[C@H](CCC(=O)O)NC(=O)C(C)(C)NC(=O)[C@@H](N)Cc1ccc(O)cc1)[C@@H](C)O)[C@@H](C)O)[C@@H](C)CC)[C@@H](C)CC)C(=O)N[C@@H](CCC(=O)O)C(=O)NCC(=O)NCC(=O)N1CCC[C@H]1C(=O)N[C@@H](CO)C(=O)N[C@@H](CO)C(=O)NCC(=O)N[C@@H](C)C(=O)N1CCC[C@H]1C(=O)N1CCC[C@H]1C(=O)N1CCC[C@H]1C(=O)N[C@@H](CO)C(N)=O` [Example 214] (H-Y[Aib]EGT[αMePhe(2-F)]TSDYSI[αMeL]LDEK([AEEA-AEEA-C18 diacid])AQ[Aib]EFI[dE]YLIEGGPSSGAPPPS-NH2): 126 nM, 0.0304 nM, 1.99 nM, 0.0221 nM and 0.0251 nM.
As for `CC[C@H](C)[C@H](NC(=O)[C@H](CC(C)C)NC(=O)[C@H](Cc1ccc(O)cc1)NC(=O)[C@@H](CCC(=O)O)NC(=O)[C@@H](NC(=O)[C@H](Cc1ccccc1)NC(=O)[C@H](CCC(=O)O)NC(=O)C(C)(C)NC(=O)[C@H](CCC(N)=O)NC(=O)[C@H](C)NC(=O)[C@H](CCCCNC(=O)COCCOCCNC(=O)COCCOCCNC(=O)CCCCCCCCCCCCCCCCCCC(=O)O)NC(=O)[C@H](CCC(=O)O)NC(=O)[C@H](CC(=O)O)NC(=O)[C@H](CC(C)C)NC(=O)[C@](C)(CC(C)C)NC(=O)[C@@H](NC(=O)[C@H](CO)NC(=O)[C@H](Cc1ccc(O)cc1)NC(=O)[C@H](CC(=O)O)NC(=O)[C@H](CO)NC(=O)[C@@H](NC(=O)[C@](C)(Cc1ccccc1F)NC(=O)[C@@H](NC(=O)CNC(=O)[C@H](CCC(=O)O)NC(=O)C(C)(C)NC(=O)[C@@H](N)Cc1ccc(O)cc1)[C@@H](C)O)[C@@H](C)O)[C@@H](C)CC)[C@@H](C)CC)C(=O)N[C@@H](CCC(=O)O)C(=O)NCC(=O)NCC(=O)N1CCC[C@H]1C(=O)N[C@@H](CO)C(=O)N[C@@H](CO)C(=O)NCC(=O)N[C@@H](C)C(=O)N1CCC[C@H]1C(=O)N1CCC[C@H]1C(=O)N1CCC[C@H]1C(=O)N[C@@H](CO)C(N)=O` [Example 215] (H-Y[Aib]EGT[αMePhe(2-F)]TSDYSI[αMeL]LDEK([AEEA-AEEA-C20 diacid])AQ[Aib]EFI[dE]YLIEGGPSSGAPPPS-NH2), the values for the Ki on human Gcg receptor, on human GIP receptor and on human GLP-1R were 75.2 nM, 0.0666 nM and 6.85 nM, respectively. Moreover, the results for the EC50 in assay [1] and in assay [2] were 0.0529 nM and 0.0525 nM, respectively.
Consider `CC[C@H](C)[C@H](NC(=O)[C@H](CC(C)C)NC(=O)[C@H](Cc1ccc(O)cc1)NC(=O)[C@@H](CCC(=O)O)NC(=O)[C@@H](NC(=O)[C@H](Cc1ccccc1)NC(=O)[C@H](CCC(=O)O)NC(=O)C(C)(C)NC(=O)[C@H](CCC(N)=O)NC(=O)[C@H](C)NC(=O)[C@H](CCCCNC(=O)COCCOCCNC(=O)COCCOCCNC(=O)[C@@H](N)CCCCNC(=O)CCCCCCCCCCCCCCCCCCC(=O)O)NC(=O)[C@H](CCC(=O)O)NC(=O)[C@H](CC(=O)O)NC(=O)[C@H](CC(C)C)NC(=O)C(C)(CC(C)C)NC(=O)[C@@H](NC(=O)[C@H](CO)NC(=O)[C@H](Cc1ccc(O)cc1)NC(=O)[C@H](CC(=O)O)NC(=O)[C@H](CO)NC(=O)[C@@H](NC(=O)C(C)(Cc1ccccc1F)NC(=O)[C@@H](NC(=O)CNC(=O)[C@H](CCC(=O)O)NC(=O)C(C)(C)NC(=O)[C@@H](N)Cc1ccc(O)cc1)[C@@H](C)O)[C@@H](C)O)[C@@H](C)CC)[C@@H](C)CC)C(=O)N[C@@H](CCC(=O)O)C(=O)NCC(=O)NCC(=O)N1CCC[C@H]1C(=O)N[C@@H](CO)C(=O)N[C@@H](CO)C(=O)NCC(=O)N[C@@H](C)C(=O)N1CCC[C@H]1C(=O)N1CCC[C@H]1C(=O)N1CCC[C@H]1C(=O)N[C@@H](CO)C(N)=O` (some centres unmarked) [Example 216], for which the Ki on human Gcg receptor came to 45.2 nM; at human GIP receptor it was 0.0559 nM; on human GLP-1R, 2.34 nM. Also, the 50% effective concentration (EC50) is 0.0327 nM in assay [1] and 0.0401 nM in assay [2].
